Assays:
[1] = tested on: Caenorhabditis elegans N2; assay: lowest effective concentration for larval growth inhibition (size below effect threshold); higher = less potent; conditions: exposure time 48 h
Method in brief: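 Each well of a 96-well plate received 50 C. elegans N2 L1 larvae, which grew for 48 h at 20°C in K-medium containing killed bacteria, 1% DMSO and the chemical at 0.5, 1, 5, 10, 50, 100 or 200 µM. A Biosort recorded the extinction of every worm as its size, and these readings were log-transformed and averaged per well. The lowest effective concentration is defined as the first dose at which the plate-adjusted mean size falls below the threshold and stays below it at all higher doses; that threshold is 5.665.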

[2] = tested on: Caenorhabditis elegans N2; assay: mean nematode size ln(EXT) after 48 h, plate-adjusted (DMSO control set to 6) (ln(EXT), control-adjusted); higher = larger nematodes / less growth inhibition; conditions: exposure time 48 h
Method in brief: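 Synchronised C. elegans N2 L1 larvae were grown for 48 h at 20°C in K-medium containing killed OP50, 1% DMSO and 0.5–200 µM chemical, at 50 per well and 4–6 wells per treatment. The Biosort recorded extinction for each worm, and a growth model removed debris. Worm size was obtained by natural-logging these values and averaging them per well. For plate adjustment, the vehicle control mean was subtracted and 6 was added.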

| Compound | lowest effective concentration [1] [µM] | mean nematode size ln(EXT) (ln) ([2]; 0.5 µM) | mean nematode size ln(EXT) (ln) ([2]; 1 µM) | mean nematode size ln(EXT) (ln) ([2]; 5 µM) | mean nematode size ln(EXT) (ln) ([2]; 10 µM) | mean nematode size ln(EXT) (ln) ([2]; 50 µM) | mean nematode size ln(EXT) (ln) ([2]; 100 µM) | mean nematode size ln(EXT) (ln) ([2]; 200 µM) |
| --- | --- | --- | --- | --- | --- | --- | --- | --- |
| Clc1ccccc1Cl [1,2-Dichlorobenzene] | > 200 | 5.95 | 5.9 | 5.9 | 6 | 6.02 | 6.04 | 5.68 |
| O=C(O)c1c(Cl)ccc2cc(Cl)cnc12 [Quinclorac] | > 200 | 5.97 | 6.03 | 6.03 | 5.99 | 5.97 | 6.07 | 5.76 |
| C/C(=N\C#N)N(C)Cc1ccc(Cl)nc1 [Acetamiprid] | > 200 | 5.78 | 5.98 | 6.03 | 6.03 | 6.16 | 6.02 | 5.96 |
| NS(=O)(=O)c1cc2c(cc1Cl)NCNS2(=O)=O [Hydrochlorothiazide] | > 200 | 5.86 | 5.85 | 5.85 | 5.83 | 5.76 | 5.46 | 5.83 |
| COC(=O)CC(=O)OC [Dimethyl malonate] | > 200 | 5.85 | 5.89 | 5.88 | 6.13 | 5.87 | 5.89 | 5.75 |
| O=C(O)c1ccccc1 [Benzoic acid] | > 200 | 5.63 | 5.77 | 5.73 | 5.77 | 5.72 | 5.73 | 6.04 |
| COc1ccc([N+](=O)[O-])cc1N [2-methoxy-5-nitroaniline] | > 200 | 5.71 | 5.76 | 5.68 | 5.77 | 5.83 | 5.75 | 5.82 |
| CCCCCCCCCC [Decane] | > 200 | 5.95 | 5.8 | 5.91 | 5.8 | 5.87 | 5.83 | 5.75 |
| CCCCCCCCCCCCCCC [Pentadecane] | > 200 | 5.88 | 5.95 | 5.94 | 6.03 | 5.95 | 5.87 | 5.74 |
| COC(=O)CSc1cc(/N=c2\sc(=O)n3n2CCCC3)c(F)cc1Cl [Fluthiacet-methyl] | > 200 | 5.92 | 5.93 | 5.96 | 5.96 | 5.98 | 5.95 | 5.92 |
| CC(=O)OCCOCCOCCOC(C)=O [Triethylene Glycol Diacetate] | > 200 | 5.82 | 5.87 | 5.88 | 5.91 | 5.83 | 5.96 | 5.82 |
| CC(O)CN(CCN(CC(C)O)CC(C)O)CC(C)O (stereo not drawn) [N,N,N',N'-Tetrakis(2-Hydroxypropyl)ethylenediamine] | 50 | 5.67 | 5.6 | 5.71 | 5.67 | 5.01 | 5.4 | 5.66 |
| Oc1ccc2ccccc2c1N=Nc1ccccc1 [Sudan I] | > 200 | 5.91 | 5.88 | 5.87 | 5.83 | 5.7 | 5.77 | 5.68 |
| ClCCOCCCl [Bis(2-chloroethyl)ether] | > 200 | 5.78 | 6.14 | 5.94 | 5.96 | 5.8 | 5.86 | 5.72 |
| CCCCC(CC)COC(=O)CCCCCCCC(=O)OCC(CC)CCCC (stereo not drawn) [Azelaic acid di(2-ethylhexyl) ester] | > 200 | 5.73 | 5.62 | 5.69 | 5.67 | 5.23 | 5.44 | 5.67 |
| O=C(O)CCCOc1ccc(Cl)cc1Cl [2,4-DB] | > 200 | 6.17 | 5.97 | 6.06 | 6.03 | 6.13 | 6.21 | 5.85 |
| CCCCOCCOCCO [2-(2-Butoxyethoxy)ethanol] | > 200 | 5.78 | 6 | 6.21 | 5.86 | 5.95 | 5.74 | 5.96 |
| CCN(Cc1cccc(S(=O)(=O)O)c1)c1ccc(C(=C2C=CC(=[N+](CC)Cc3cccc(S(=O)(=O)O)c3)C=C2)c2ccccc2S(=O)(=O)[O-])cc1 [FD & C Blue no. 1] | > 200 | 5.85 | 5.87 | 5.91 | 5.88 | 5.89 | 5.92 | 5.89 |
| CCCCCCCCOC(=O)c1ccccc1C(=O)OCCCCCCCC [Di-n-octyl phthalate] | > 200 | 5.93 | 5.87 | 5.9 | 5.85 | 5.88 | 5.83 | 5.83 |
| CCCCC(CC)COC(=O)c1ccccc1C(=O)OCC(CC)CCCC (stereo not drawn) [Diethylhexyl phthalate] | > 200 | 5.9 | 5.91 | 5.76 | 5.85 | 5.67 | 6.02 | 5.76 |
| O=NO [Sodium nitrite] | > 200 | 6 | 6.02 | 6.05 | 6.03 | 6.08 | 6.04 | 5.75 |
| NCCO [Ethanolamine] | > 200 | 5.86 | 5.87 | 5.79 | 5.73 | 5.75 | 5.76 | 5.76 |
| CCCCN(CCCC)N=O [N-Nitrosodi-N-butylamine] | > 200 | 6.12 | 6.07 | 5.93 | 5.97 | 5.99 | 6.08 | 5.95 |
| Cc1c(-c2cccnc2)c2ccccc2n1CCCCC(=O)O [5-[2-methyl-3-(pyridin-3-yl)-1H-indol-1-yl]pentanoic acid] | > 200 | 5.93 | 5.89 | 5.78 | 5.84 | 5.83 | 5.87 | 5.7 |
| O=C1CCCCCN1 [Caprolactam] | > 200 | 5.8 | 5.81 | 5.84 | 5.87 | 5.88 | 5.55 | 5.68 |
| CCCCC(CC)COP(=O)(OCC(CC)CCCC)OCC(CC)CCCC (stereo not drawn) [Tris(2-ethylhexyl) phosphate] | > 200 | 5.94 | 5.99 | 5.94 | 5.96 | 5.92 | 5.34 | 5.78 |

— the supplement of paper PMC4858399
